Consider one molecule from US20110162981A1, “METHODS AND COMPOSITIONS FOR PREVENTING, REDUCTING OR TREATING DAMAGE CAUSED BY ISCHEMIA AND SCHEMIA-LIKE CONDITIONS” (priority 2008, published 2011).

For the assay, the system named is ischemia-induced brain lesion (middle cerebral artery occlusion). The assay is described as follows: MCAO/reperfusion stroke model, TTC staining lesion volume. Type of assay: in vivo, Sprague Dawley rats. As to conditions: ovariectomized female SD rats, 1 hr MCAO.

As for `C[C@]12CC[C@@H]3c4ccc(O)cc4CC[C@H]3[C@@H]1CC[C@@H]2O` [17 β-Estradiol, 17-beta estradiol], the “Ischemic Lesion Volume (means, mm^3)” value (24 hours after onset of reperfusion, TTC staining, mean) worked out at 147.4 mm^3. Further, under “24 hours reperfusion, vs control diet rats”, the “reduction of ischemia-induced brain lesion compared with control rats” value turned out to be 48%.
